Like-named read-outs stand apart in the source and are kept apart here.
Experiments:
HIV-1 (RF strain) [1] = format: cell-based; conditions: for HIV Replication (Day 4), p24: single agent, human PBMCs, Table 2; for changes in the level of HIV p24 after either 4 or 8 days: single agents at the concentrations of Table 2
Method: Freshly isolated human blood lymphocytes and monocytes were infected with HIV-1 (RF strain) and then incubated for an additional 3 days in the presence of compounds alone or in combinations or left untreated. At the end of 4 days, the infected cells were briefly centrifuged. The supernatant was collected and used to titer HIV p24, using an enzyme-linked immunosorbent assay (ELISA). The cell pellets were washed two times with medium lacking any inhibitors, and the washed human peripheral blood mononuclear cells (PBMCs) were mixed 1:1 with MT-2 lymphocytes and incubated for an additional 4 days absent any inhibitors. All cells were then removed by centrifugation and the supernatant was again assayed for p24 levels by ELISA.
Viral p24 produced by HIV-1 (RF) infected cells was quantified to determine the effects of a cytotoxic drug and efavirenz alone or in combination. On day one, 5.25×10^e6 donor PBMCs (stimulated by PHA/IL-2 for 72 hours in RPMI tissue culture medium were centrifuged at 1,000 rpm for 10 minutes and the supernatant fluid was decanted. Using 50% tissue culture infectious dose (TCID50) estimated from the viral stock titration procedure (PRR 97-04), 5.25×10^6 PBMCs were infected with 5.2×10^3 TCID50 of virus (M. O. I. ˜0.001). Cells were resuspended, the virus stock added, and incubated at 37° C. for one hour. RPMI was added to the infected PBMCs and unabsorbed virus in the supernatant fluid was removed following centrifugation. The cells were resuspended in 10 mL RPMI (20% FCS, 30 units IL-2/mL) and placed in a 25 cm^2 tissue culture flask. The virus control flask contained infected cells only. Similar flasks contained efavirenz or the cytotoxic drug added separately or in combination. Flasks were incubated at 37° C., in 5% CO2 for 3 days. On day 4, the contents of each flask were centrifuged and the supernatant, inactivated with 0.5% Triton X-100, was frozen at −70° C. for p24 analysis. The infected PBMCs were resuspended in RPMI, centrifuged again, and the supernatant discarded to remove residual drugs. The pellets were resuspended in each flask, and 1×10^e6 MT-2 cells were added. The final volume was 10 mL RPMI (5% FCS) per flask. After 4 more days of incubation (day 8), supernatant from each flask was inactivated with Triton X-100 and frozen at −70° C. The p24 antigen concentration of viral supernatants from days 4 and 8 was determined using the NEN Life Science Products HIV-1 p24 antigen capture assay.

HIV-1 (RF strain) [2] = format: cell-based; conditions: for Infectious Centers (Day 8), p24: single agent, PBMCs washed, co-cultivated with MT-2, Table 2
[3] = Toxicity of compounds for uninfected MT-2 cells (MTT assay); conditions: human
Excerpt: (§1) In order to test whether some external death stimuli, which are independent of bcl-2 (Reed, 1994), may not selectively kill HIV-infected cells, we exposed uninfected and HIV-infected cells to various chemical toxins, including losoxantrone, bisnafide, etoposide and hydroxyurea. […] Therefore, we proceeded to examine whether either losoxantrone or etoposide were able to selectively kill HIV-infected cells.
(§2) The concentration of the cytotoxic drugs losoxantrone, etoposide or hydroxyurea required to reduce cell viability by 50% (TC50) was determined with or without virus infection. Graded concentrations of drug in RPMI (5% FCS) were added to a 96-well microtiter plate. 1×10^e5 cells were added per well. Cell control wells contained cells in RPMI only. Plates were incubated at 37° C., 5% CO2 for 3 days. The tetrazolium dye (3-4,5-dimethylthiazol-2yl)-2,5-diphenyltetrazolium bromide (MTT) was used to assess the number of viable cells. After the 3-day incubation period, 10 μL of MTT (5 mg/mL in 1×PBS) was added to each well. Following a 2 hour incubation at 37° C., 150 μL was removed from each well and 200 μL of 0.04 N HCl in isopropanol was added. The contents of each well were mixed and the quantity of reduced dye was measured by absorbance at 570 nm. The concentration of compound producing a 50% reduction in signal relative to the untreated cultures (TC50) was determined.

[4] = system: human T-lymphocytes (MT-2) infected with HIV-1; assay: Toxicity of compounds for HIV-1-infected MT-2 cells (MTT assay); conditions: for killing of infected cells relative to uninfected lymphocytes: after 24 hours, losoxantrone 10 nM, etoposide 100 nM
Excerpt: as §1
as §2, with “Plates were incubated at 37° C., 5% CO2 for 3 days.” left out, “After the 3-day incubation period, 10 μL of MTT (5 mg/mL in 1×PBS) was added to each well.” left out

PBMC = assay: Inhibition of PBMC cell division; format: cell-based, human; conditions: 100 μM
[5] = system: human T-lymphocytes (MT-2); assay: Toxicity of compounds for uninfected MT-2 cells (MTT assay)
Excerpt: as §1, §2

[6] = Homo sapiens, T-lymphocyte, read-out: Viable Cells (% Remaining) +HIV

SMILES	changes in the level of HIV p24 after either 4 or 8 days (HIV-1 (RF strain) [1])	viability at 0.01 µM [4, 6] [%]	HIV Replication (Day 4), p24 (HIV-1 (RF strain) [1]; 10 nM) [pg/mL]	Infectious Centers (Day 8), p24 (HIV-1 (RF strain) [2]; 10 nM) [pg/mL]	killing of infected cells relative to uninfected lymphocytes [4] [fold]	other results
Nc1cccc(CN2C(=O)N(Cc3cccc(N)c3)[C@H](Cc3ccccc3)[C@H](O)[C@@H](O)[C@H]2Cc2ccccc2)c1 [Compound E, [4R-(4α, 5α, 6β, 7β]-1,3-bis (3-aminophenylmethyl]hexahydro-5,6-dihydroxy-4,7-bis (phenlymethyl-2H-1,3-diazepin-2-one dimethylsulfonate]	only small changes					HIV Replication (Day 4), p24 (HIV-1 (RF strain) [1]; 100 nM): 25000 pg/mL; Infectious Centers (Day 8), p24 (HIV-1 (RF strain) [2]; 100 nM): 350000 pg/mL
O=C1Nc2ccc(Cl)cc2[C@@](C#CC2CC2)(C(F)(F)F)O1 [efavirenz]	only small changes	82	15000	200000		viability at 24 h, 0.01 µM ([3]; uninfected MT-2 T-lymphocytes): 81%
COc1cc([C@@H]2c3cc4c(cc3[C@@H](O[C@@H]3O[C@@H]5CO[C@@H](C)O[C@H]5[C@H](O)[C@H]3O)[C@H]3COC(=O)[C@H]23)OCO4)cc(OC)c1O [etoposide]					6	viability at 24 h, 0.1 µM [3]: 71%; viability at 0.1 µM [4, 6]: 12%; p24 results when substituted for losoxantrone (HIV-1 (RF strain) [2]; compared with the losoxantrone results, not shown): very similar
NC(=O)NO [hydroxyurea]						inhibition of PBMC cell division (PBMC): 3 fold
O=C1c2c(O)cccc2-c2nn(CCNCCO)c3ccc(NCCNCCO)c1c23 [losoxantrone]	only small changes	4	200000	700000	5	viability at 24 h, 0.01 µM [3]: 68%; concentration with evidence of substantial toxicity to uninfected cells [5]: ≥ 10 nM; range of concentrations that show selectivity for infected cells ([4]; cell survival, infected vs. control cells): 0.1 to 10 nM; increase in p24 titers (HIV-1 (RF strain) [1]; 10 nM, days 4 and 8): 3 to 7 fold
